Some test systems named below: A549; SNB-19; K562; KM12; TK-10; HCT-116; OVCAR-5; ACHN; SK-MEL-28; HCC 2998; SF-295; DLD-1; NCI-H522; NCI-H460; A498; PC-3; MCF7; RXF 393; Hs-578T; LXFL 529.
Holding throughout (test): NCI tumour cell line growth inhibition, 48 h

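Exposure lasted 48 hours, with cells grown in 96-well plates and compounds tested at five concentrations. At the GI50, growth is halved.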 Active and inactive are the calls of the source. No stated cut-off is given here; in the data, active = GI50 up to about 1.1 µM and inactive = higher.

`CCCC(O)c1ccc2[nH]c3c(C)cc([N+](=O)[O-])c(C)c3c2c1` (centres undefined): the GI50 in the assay with A549 was 39.3 µM (inactive); with SNB-19, > 100 µM (inactive); in the assay with K562, 57.4 µM (inactive); in the assay on KM12, > 100 µM (inactive); in the assay on TK-10, 23 µM (inactive); with HCT-116, > 100 µM (inactive). Moreover, the GI50 in the assay with OVCAR-5 is > 100 µM (inactive); in the assay with ACHN, > 100 µM (inactive); with SK-MEL-28 it was > 100 µM (inactive); in the assay on HCC 2998, > 100 µM (inactive); with SF-295, 95.1 µM (inactive); in the assay with DLD-1, 54.1 µM (inactive). The GI50 in the assay with NCI-H522 and in the assay with NCI-H460 was > 100 µM (inactive) each time.
`CCOC(=O)Oc1ccc2c(c1)c(=O)c1c(NCCCN(CC)CC)ccc3nnn2c31`: the GI50 in the assay with A549 was 1.64 µM (inactive); with A498, 11.1 µM (inactive); in the assay with SNB-19, 5.2 µM (inactive); in the assay with K562, 5.13 µM (inactive); in the assay on KM12, 0.982 µM (active); in the assay with TK-10, 2.79 µM (inactive). Also, the GI50 in the assay on HCT-116 is 1.37 µM (inactive); in the assay with OVCAR-5, 16.6 µM (inactive); in the assay on ACHN, 0.82 µM (active); with SK-MEL-28 it was 18.6 µM (inactive); with HCC 2998, 1.43 µM (inactive); in the assay on SF-295 it was 1.82 µM (inactive). In addition, the GI50 in the assay with PC-3 is 0.303 µM (active); in the assay on MCF7 it was 0.929 µM (active); in the assay with RXF 393 it was 1.81 µM (inactive); with Hs-578T it was 20.5 µM (inactive); in the assay with NCI-H522, 1.56 µM (inactive); in the assay on NCI-H460, 0.337 µM (active).
With `O=C(O)C(SC1=NC(=O)C2(NN1)c1ccccc1-c1ccccc12)SC1=NC(=O)C2(NN1)c1ccccc1-c1ccccc12`, the GI50 was > 10 µM (inactive) in the assay on A549; > 10 µM (inactive) in the assay with A498; > 10 µM (inactive) in the assay on SNB-19; 9.51 µM (inactive) with K562; > 10 µM (inactive) in the assay with KM12; > 10 µM (inactive) in the assay on TK-10. Besides, the GI50 in the assay with HCT-116, with OVCAR-5, with ACHN, in the assay with SK-MEL-28, in the assay on HCC 2998 and in the assay with SF-295 was > 10 µM (inactive) each time. The GI50 with PC-3 is > 10 µM (inactive); in the assay with MCF7, 8.67 µM (inactive); in the assay with RXF 393, > 10 µM (inactive); with Hs-578T, > 10 µM (inactive); in the assay with NCI-H522 it was > 10 µM (inactive); in the assay with NCI-H460 it was > 10 µM (inactive).
For `c1ccc(CSCCc2ccncc2)cc1`, the GI50 with A549, in the assay on A498, in the assay on SNB-19, in the assay on K562, in the assay on KM12 and in the assay on TK-10 was > 100 µM (inactive) throughout. In addition, the GI50 in the assay with HCT-116, with OVCAR-5, with ACHN, in the assay on SK-MEL-28, in the assay on HCC 2998 and in the assay on SF-295 was > 100 µM (inactive) each time. Besides, the GI50 was > 100 µM (inactive) in the assay on PC-3; > 100 µM (inactive) with MCF7; > 100 µM (inactive) in the assay on RXF 393; > 100 µM (inactive) with Hs-578T; 69 µM (inactive) in the assay on NCI-H522; > 100 µM (inactive) with NCI-H460.
With `C=C(Cl)C(C)(Cl)CCC(Cl)C(C)(C)Cl` (centres undefined), the GI50 in the assay on A549 was 44.8 µM (inactive); in the assay with A498, > 100 µM (inactive); in the assay on SNB-19 it was > 100 µM (inactive); in the assay with K562 it was 33.7 µM (inactive); with KM12, 87.9 µM (inactive); with TK-10, > 100 µM (inactive). Moreover, the GI50 was 35.1 µM (inactive) in the assay with HCT-116; > 100 µM (inactive) with OVCAR-5; > 100 µM (inactive) in the assay on ACHN; > 100 µM (inactive) in the assay on SK-MEL-28; > 100 µM (inactive) in the assay with HCC 2998; > 100 µM (inactive) in the assay with SF-295. Also, the GI50 is 54.7 µM (inactive) in the assay on PC-3; 37.8 µM (inactive) in the assay on MCF7; 35.1 µM (inactive) in the assay on RXF 393; 27 µM (inactive) in the assay on Hs-578T; 23.1 µM (inactive) with NCI-H522; 78.9 µM (inactive) in the assay with NCI-H460.
On to `CCOC(=O)c1csc(C(CSCc2ccc(OC)cc2)N2C(=O)c3ccccc3C2=O)n1` (centres undefined), for which the GI50 with A549 is > 100 µM (inactive); in the assay with A498 it was > 100 µM (inactive); with SNB-19 it was > 100 µM (inactive); in the assay with K562 it was 33.9 µM (inactive); in the assay on KM12 it was > 100 µM (inactive); in the assay with TK-10, > 100 µM (inactive). Besides, the GI50 in the assay with HCT-116 is 49.1 µM (inactive); with OVCAR-5, > 100 µM (inactive); in the assay on ACHN, > 100 µM (inactive); in the assay with SK-MEL-28, > 100 µM (inactive); with HCC 2998 it was > 100 µM (inactive); with SF-295 it was > 100 µM (inactive). Also, the GI50 in the assay with PC-3 was > 100 µM (inactive); in the assay with MCF7 it was 73.5 µM (inactive); in the assay with RXF 393, > 100 µM (inactive); in the assay with Hs-578T it was > 100 µM (inactive); in the assay with NCI-H522, 23.5 µM (inactive); with NCI-H460 it was > 100 µM (inactive).
Take `COc1cccc(/C=C\c2ccc(O)cc2)c1`: the GI50 in the assay on A549 is 16.9 µM (inactive); with A498, 28.3 µM (inactive); in the assay with SNB-19 it was 29.7 µM (inactive); in the assay with K562, 8.77 µM (inactive); in the assay with KM12, 1.4 µM (inactive); in the assay on TK-10, 52.4 µM (inactive). The GI50 with HCT-116 was 22.7 µM (inactive); in the assay on OVCAR-5, 62.8 µM (inactive); with ACHN, 3.64 µM (inactive); with SK-MEL-28, 40.1 µM (inactive); in the assay with HCC 2998, 23.8 µM (inactive); with SF-295 it was 28.6 µM (inactive). In addition, the GI50 was 11.7 µM (inactive) in the assay with PC-3; 26.1 µM (inactive) with MCF7; 19.5 µM (inactive) in the assay with RXF 393; 19.7 µM (inactive) with Hs-578T; 7.06 µM (inactive) in the assay on NCI-H522; 4.1 µM (inactive) in the assay with NCI-H460.
Consider `O=C(Oc1ccc2c(-c3ccccc3)c(C(=O)Nc3ccc(Cl)cc3)c(=O)oc2c1)c1ccccc1`, for which the GI50 in the assay on A549, in the assay on SNB-19, with K562, in the assay on KM12, in the assay on TK-10 and in the assay on HCT-116 was > 100 µM (inactive) each time. Further, the GI50 with ACHN, in the assay with SK-MEL-28, in the assay with SF-295, with DLD-1, in the assay with RXF 393 and with NCI-H522 was > 100 µM (inactive) throughout. The GI50 in the assay on NCI-H460 was > 100 µM (inactive).
`COc1ccc(/C=C/C(=O)c2cc(C(C)(C)C)c(O)c(C(C)(C)C)c2)cc1OC`: the GI50 was 8.59 µM (inactive) in the assay on A549; 15 µM (inactive) in the assay on A498; 24.8 µM (inactive) with SNB-19; 3.12 µM (inactive) in the assay with K562; 4.36 µM (inactive) in the assay on KM12; 6.82 µM (inactive) in the assay on TK-10. The GI50 in the assay with HCT-116 was 4.25 µM (inactive); in the assay with OVCAR-5, 25.2 µM (inactive); with ACHN it was 14.6 µM (inactive); with SK-MEL-28, 37.5 µM (inactive); with HCC 2998 it was 2.27 µM (inactive); in the assay on SF-295, 6.52 µM (inactive). Further, the GI50 with PC-3 was 3.66 µM (inactive); in the assay on MCF7, 4.29 µM (inactive); in the assay on RXF 393, 2.86 µM (inactive); in the assay with Hs-578T it was 17.8 µM (inactive); with NCI-H522, 5.61 µM (inactive); with NCI-H460, 5.52 µM (inactive).
Turning to `CCCCCCCCCCCCO[PH](=O)OCCCCCCCCCCCC`, the GI50 in the assay on A549 was > 100 µM (inactive); in the assay with A498, > 100 µM (inactive); with SNB-19 it was > 100 µM (inactive); in the assay on K562 it was > 100 µM (inactive); in the assay on KM12, 32.2 µM (inactive); in the assay with TK-10, 34.4 µM (inactive). Besides, the GI50 in the assay with HCT-116, in the assay on OVCAR-5, in the assay on ACHN, with SK-MEL-28, in the assay with HCC 2998 and in the assay on SF-295 was > 100 µM (inactive) throughout. Besides, the GI50 in the assay on PC-3, in the assay on MCF7, in the assay on RXF 393, in the assay on Hs-578T, with NCI-H522 and with NCI-H460 was > 100 µM (inactive) each time.
Regarding `O=C1C(Cl)C(c2cccc(O)c2)N1n1cnc2ccccc2c1=O` (centres undefined), the GI50 is > 100 µM (inactive) in the assay on A549; 49.5 µM (inactive) in the assay with SNB-19; 49.1 µM (inactive) in the assay on K562; > 100 µM (inactive) with TK-10; 89.9 µM (inactive) in the assay with HCT-116; > 100 µM (inactive) in the assay with OVCAR-5. Besides, the GI50 in the assay with LXFL 529, in the assay on ACHN, in the assay with SK-MEL-28, in the assay with HCC 2998, in the assay on SF-295 and with DLD-1 was > 100 µM (inactive) each time. Further, the GI50 in the assay on RXF 393, in the assay with NCI-H522 and with NCI-H460 was > 100 µM (inactive) throughout.
With `COc1c2c3c4c(c(OC)c(=O)c5c(O)cc(OC)c(c6c(OC)cc(O)c(c1=O)c63)c54)C(C(C)O)C2C(C)O` (centres undefined), the GI50 in the assay on A549 is 0.735 µM (active); in the assay with A498 it was 0.918 µM (active); in the assay on SNB-19 it was 0.83 µM (active); in the assay on K562 it was 0.387 µM (active); in the assay on KM12, 0.873 µM (active); in the assay with TK-10, 1.72 µM (inactive). Also, the GI50 with HCT-116 is 0.847 µM (active); with OVCAR-5, 1.28 µM (inactive); in the assay on ACHN, 0.811 µM (active); with SK-MEL-28, 0.953 µM (active); in the assay with HCC 2998, 0.431 µM (active); in the assay with SF-295 it was 0.562 µM (active). In addition, the GI50 was 0.594 µM (active) in the assay on PC-3; 1.03 µM (active) in the assay on MCF7; 0.471 µM (active) in the assay on RXF 393; 0.855 µM (active) in the assay with Hs-578T; 0.415 µM (active) with NCI-H522; 0.345 µM (active) with NCI-H460.
